Legend:
IL-6 = IL-6 production of MΦ from JaK3 knock out mice (Example 6); format: in vivo; conditions: LPS stimulation; 1 mg/ml in city water, 24 days; control knock out mice 962 pg/ml
Method: A stimulator was added to 1×10^6 MΦ, and the incubation was conducted at 37° C. for 2 days in a CO2 incubator. After centrifugation, the culture supernatant was collected.
The amount of IL-6 was determined using IL-6 dependent mouse hybridoma MH60 cells (J. Eur. Immunol., vol. 18, p. 951, 1988). One hundred microliters of the culture supernatant were added to 100 μl of the MH60 cell suspension adjusted to 1×10^5 cells/ml in a 10% FCS-containing RPMI medium, and the mixed solution was incubated at 37° C. for 2 days in a CO2 incubator. […] Immediately after the dissolution, an absorbance of 570 nm was measured with an immunometer (supplied by Bio-Rad).
(§1) Macrophages (MΦ) were prepared from knock out mice deficient in a molecule participating in a signal transduction system from a receptor, and the function of the redox system was analyzed. […]
(§2) Peritoneal cells were harvested from three groups of knock out mice, and stimulated with LPS, IL-2, IFNγ and a combination thereof. The NO production, the IL-6 production and the IL-12 production were measured. […] Then, the IL-6 production was analyzed. In LPS stimulation, the amount was detected as 962 pg/ml in the knock out mice derived MΦ culture, 122 pg/ml in the NAC group, and 82 pg/ml in the GSH-OEt group. […]

IL-12 = IL-12 production of MΦ from JaK3 knock out mice (Example 6); format: in vivo; conditions: stimulation of LPS or IFNγ; 1 mg/ml in city water, 24 days; no production in control group
Method: The amount of IL-12 was determined through bioassay using cells of human T cell strain 2D6 (J. Leukocyte Biology, vol. 61, p. 346, 1997).
2D6 cells which had been incubated in an RPMI 1640 medium containing 500 pg/ml of recombinant human IL-12, 50 μM of 2-mercaptoethanol and 10% FCS (fetal calf serum) were moved to a tube, and centrifugally washed three times with the above-mentioned medium without IL-12 and cell density was adjusted to 1×10^5/ml. The cell suspension was added in an amount of 100 μl each to a 96-well flat bottom plate containing a sample serially diluted in advance with an RPMI 1640 medium containing 50 μM of 2-mercaptoethanol and 10% FCS in an amount of 100 μl each. […] The cells a harvested, and the radioactivity was measured using a β counter (Matrix 96, supplied by Packard).
as §1, §2

[1] = test system: insulin-non-dependent diabetes mellitus; assay: Blood sugar level in db/db mice (Example 26); format: in vivo; conditions: intraperitoneal, age 4 to 9 weeks, three times per week; at satiation; saline 100
Description: db/db mice purchased from Nippon Clair, Co. were naturally mated together. Among the off spring mice, a colony of db/db mice with a high frequency of the spontaneous onset of insulin-non-dependent diabetes mellitus was established. Male db/db mice from the colony were used for the present experiment. Chemical agents were intraperitoneally administered to the db/db mice aged 4 to 9 weeks three times per week, in total 18 times; and based on the level of blood sugar in the mice at satiation, the effects of the chemical agents on the improvement of the diseased conditions of insulin-non-dependent diabetes mellitus were followed once per week. The doses were the same as in Example 24.

[2] = test system: macrophage-like cells from tissues of rheumatoid arthritis patients; assay: Intracellular GSH by ACAS in macrophage-like cells from tissues of rheumatoid arthritis patients (Example 17); format: cell-based, human; conditions: 3 hours; for relative ratio of oxidative macrophages (reduced amount of intracellular glutathione) compared with saline-added group: added at 2 mM
Method: Synovial tissue was aseptically sampled from tissues resected during joint surgery. The sampled synovial tissue was rinsed in phosphate buffer, from which the surface was peeled off in a petri dish containing the same phosphate buffer. Then, the resulting synovial tissue was cut into pieces with a pair of scissors. To the pieces were added 2% hyaluronidase (manufactured by Sigma), 0.2% DNase (derived from bovine pancreas) and 5% collagenase, for enzymatic treatment at 37° C. for 2 hours. After discarding the resulting debris, a cell fraction recovered by centrifugation was adjusted to 5×10^5 cells/ml in a phenol red-free DMEM culture medium supplemented with 10% FCS (manufactured by Nikken Biology Co.). For 3 hours, the cells were allowed to adhere to the plastic surface. Plastic surface adherent macrophage-like cells harvested with a rubber policeman were then subjected to rinsing in combination with centrifugation three times using the culture medium under ice cooling. The resulting cells were designated as synovial tissue-derived macrophages and were then subjected to the following experiments.
By the same manner as in Example 3, macrophage-like cells were collected from tissues of rheumatoid arthritis patients, and were then suspended and adjusted in a phenol red-free RPMI 1640 culture medium supplemented with 10% fetal calf serum to 3×10^6 cells/ml. The suspension was divided in 100-μl portions on Lab-Tek Chamber Slide (#136439; manufactured by NUNC, CO.), for culturing in 5% CO2 at 37° C. for 3 hours; after discarding the nonadherent cells, the 200-μl serum-free culture medium further containing any of the following chemical agents was fed to the resulting culture, for reaction for 3 hours; and then, the resulting culture was rinsed three times, followed by addition of the serum-free culture medium of 200 μl and addition of monochlorobimane to a final concentration of 10 μM, for reaction for 30 minutes. The amount of intracellular GSH was assayed by imaging analysis with an ACAS system (manufactured by Meridian Co.).

Structure (SMILES) | IL-6 production (IL-6) [pg/mL] | amount of IL-12 (IL-12) [pg/mL] | Relative ratio % of blood sugar level, 6 weeks [1] [%] | Relative ratio % of blood sugar level, 7 weeks [1] [%] | Relative ratio % of blood sugar level, 8 weeks [1] [%] | induction of oxidative macrophage with the reduced amount of intracellular glutathione ([2]; added at 2 μM) | relative ratio of oxidative macrophages (reduced amount of intracellular glutathione) compared with saline-added group [2] | relative ratio of oxidative macrophages (reduced amount of intracellular glutathione) compared with saline-added group ([2]; listed as glutathione ethyl ester)
CC(=O)N[C@@H](CS)C(=O)O [NAC, N-acetylcysteine, reference compound] | 122 | 420 |  |  |  |  |  | 
CC(=O)N[C@@H](CSSC[C@H](NC(C)=O)C(=O)O)C(=O)O [(NAC)2, N,N′-diacetylcystine] |  |  | 95 | 100 | 98 |  |  | 
COC(=O)[C@H](CSSC[C@H](NC(C)=O)C(=O)OC)NC(C)=O [(NAC-OMe)2, N,N′-diacetylcystine dimethyl ester] |  |  | 94 | 92 | 93 | confirmed |  | 
CCOC(=O)CNC(=O)[C@H](CS)NC(=O)CC[C@H](N)C(=O)O [GSH-OEt, glutathione monoethyl ester] | 82 | 610 |  |  |  |  | same action was also observed | decreased

— patent US7378387B2, “Method of suppressing immune response by reducing intracellular content of glutathione in macrophages and monocytes” (Ajinomoto Co., Inc., priority 1997, dated 2008)
